According to paper PMC7607171, “Optimized low‐dose combinatorial drug treatment boosts selectivity and efficacy of colorectal carcinoma treatment” (Molecular Oncology, 2020):
Where two headings read alike, the source gives them in different places.

How the values were obtained:
[1] = system: SW620 tumors; assay: Subcutaneous xenograft tumor growth; type: in vivo, Swiss nu/nu mice
Description: All procedures including animal use were performed in accordance with the Institutional Ethical Committee of Animal Care in Geneva and the Swiss Cantonal Veterinary Office (Authorization number GE‐136‐19). Briefly, female and male Swiss nu/nu mice aged 6–8 weeks were obtained from Charles River (Écully, France). For subcutaneous xenografts mice were inoculated in the left flank with 5x10^6 DLD1 or SW620 cells suspended in 100 µL of cell culture medium, supplemented with 1% FBS. Treatment was initiated when palpable tumors had formed (approximately 30 mm^3) on day 4 for DLD1 and day 5 for the SW620 model.
Treatment was initiated once tumor growth was confirmed with bioluminescence measurements. Drugs were administered through oral gavage based on average body weight of the males (100 µL/mouse) and females (80 µL/mouse) at various concentrations, see Tables S10 and S11.
Solution A: step (1) 30% PEG 400 + 5% propylene glycol + 0.5% Tween 80 and (2) 64.5% sterile H2O. Solution B: step (1) 10% DMSO, (2) 30% PEG 300 + 5% Tween 80 and (3) 55% sterile H2O. Vemurafenib was prepared 2x concentrated (half or three/sixth of total solution), and the remaining drugs were prepared 6x concentrated (one/sixth of total solution), after which drugs were diluted to prepare 1x drug concentrations for the ODC or single drugs using the other drugs or complete solvent solutions without drugs for lower concentrations. FOLFOX was administered as 6 mg/kg oxaliplatin two hours before administration of 90 mg/kg leucovorin and 50 mg/kg (DLD1) or 25 mg/kg (SW620) 5‐fluorouracil at day 1 and a repeat of 5‐fluorouracil dosing on day 2.
The Bliss independence model can be used to evaluate the drug interaction potential of a drug mixture. The model is based on the principle that each drug has an independent drug mechanism of action, but all contribute to a common result (e.g., cell death or tumor volume inhibition). The model is based on the probability theory and requires the drug activity of each drug at the selected dose to predict the inhibition rate (IR) at additive doses. For in vivo tumor volume results, we predicted the IR based on the fraction of tumor volume remaining after single‐drug treatment of each of the drugs vs 100% CTRL (F1,2,3,4), using the following formula: IR = […].

[2] = 0-24h, oral, cited from earlier work
[3] = system: SW620 cells; assay: CellTiter-Glo metabolic ATP activity assay, 2D culture; type: cell-based, human; details: low-dose single drug (hormetic dose effect)
Description: Drugs were dissolved in DMSO and stored at −80, and aliquots were thawn prior to each use. Drugs were dissolved at concentrations resulting in in vitro experimental conditions 0.15% DMSO maximum in the culture medium. […] The 48‐hour retreatment was performed by adding another volume of media containing a 1x concentration of drugs to not affect the final concentration in the wells.
Drug treatment activity in 2D and 3D cultures was measured using the CellTiter‐Glo® cell metabolic activity (ATP) assays (G7572 and G9683, Promega, Madison, WI, USA), according to the manufacturer`s instructions. Assay bioluminescence was detected using the BioTek Cytation 3 and corresponding Gen5 Image software version 3.04 at standard settings.
The next step is the drug combination screening in Search 1 (11 drugs in 155 combinations) according to the OACD resolution IV matrix and performed in the CRC and the nonmalignant CCD841CoN cell simultaneously. The resulting output of the drug combination activity was measured in cell metabolic activity (ATP levels, % CTRL) to represent cell viability and consisted of the average of technical triplicate values. The experimental data points are then used for step‐wise second‐order linear regression analysis by Matlab®. This model mathematically describes the relationship between the drug combination input and output activity of each possible two‐drug combination. […]

[4] = system: HCT116 cells; assay: Tunneling nanotubule (TNT) quantification, F-actin/DAPI staining; type: cell-based, human
[5] = selumetinib 0.2 mg/kg, Exp 6, Day 20
[6] = selumetinib 0.2 mg/kg, Exp 8, Day 19
[7] = selumetinib 1 mg/kg, Exp 4, Day 22
[8] = selumetinib 10 mg/kg, Exp 4, Day 22
[9] = regorafenib 30 mg/kg, Exp 4, Day 22
[10] = regorafenib 30 mg/kg, Exp 6, Day 20
[11] = regorafenib 30 mg/kg, Exp 8, Day 19
[12] = vemurafenib 75 mg/kg, Exp 6, Day 20

## Cn1cnc2c(F)c(Nc3ccc(Br)cc3Cl)c(C(=O)NOCCO)cc21 [selumetinib]
[1]; [5]
  % CTRL (tumor volume): 76 41 21 % CTRL
  Volume: 393 214 107 mm^3
[1]; [6]
  % CTRL (tumor volume): 93 5 3 % CTRL
  Volume: 588 30 21 mm^3
[1]; [7]
  % CTRL (tumor volume): 67 55 24 % CTRL
  Volume: 323 265 118 mm^3
[1]; [8]
  % CTRL (tumor volume): 43 20 9 % CTRL
  Volume: 209 95 43 mm^3

## CNC(=O)c1cc(Oc2ccc(NC(=O)Nc3ccc(Cl)c(C(F)(F)F)c3)c(F)c2)ccn1 [regorafenib]
[1]; [9]
  % CTRL (tumor volume): 117 45 20 % CTRL
  Volume: 567 220 98 mm^3
[1]; [10]
  % CTRL (tumor volume): 90 78 35 % CTRL
  Volume: 468 407 182 mm^3
[1]; [11]
  % CTRL (tumor volume): 44 18 10 % CTRL
  Volume: 278 111 64 mm^3
[2]; 160 mg/kg, 3 wk on/ 1 wk off, ref 12
  AUC: 50260 ng·h/mL
[2]; 160 mg/kg, 3 wk on/ 1 wk off, ref 13
  AUC: 58300 ng·h/mL

## CCCS(=O)(=O)Nc1ccc(F)c(C(=O)c2c[nH]c3ncc(-c4ccc(Cl)cc4)cc23)c1F [vemurafenib]
[3]
  effect on cell viability: increased cell viability
[4]; single drug (CTRL 9.5%)
  cells forming tunneling nanotubules (TNTs, > 10 µm): 14.0%
[4]; single drug (CTRL 21 µm), nonsignificant
  TNT length: 32 µm
[1]; [12]
  % CTRL (tumor volume): 65 42 21 % CTRL
  Volume: 337 219 109 mm^3
[1]; vemurafenib 75 mg/kg, Exp 8, Day 19
  % CTRL (tumor volume): 94 48 58 % CTRL
[2]; 960 mg/kg twice daily
  AUC: 131000 ng·h/mL
[2]; 960 mg/kg twice daily, ref EPAR 002409
  AUC: 21100 ng·h/mL
